Experimental data as given in patent US12157730B2, “Heteroaryl derivative, method for producing same, and pharmaceutical composition comprising same as effective component” (VORONOI INC., priority 2019, dated 2024).

target: T1, Ba/F3 cell EGFR Exon20 ins NPH (Homo sapiens, UniProt P00533, INS773NPH); assay: Ba/F3 cell proliferation suppression, EGFR Exon20 ins NPH; format: cell-based; settings: GI50 class; Ba/F3 cell line with NPH inserted at Exon20 of EGFR; 72 hours
T1 construct: expressed in transfected cells; host or cells: Ba/F3
Description: The following experiment was carried out to evaluate the suppression activity of the compounds according to the present invention against proliferation of Ba/F3 and lung cancer cells which express EGFR mutations.
Of the cancer cell lines expressing the EGFR gene, A549 was cultured after adding 10% FBS (HyClone) to DMEM (Invitrogen), and RPMI-1640 (Invitrogen) with 10% FBS was used for the other cancer cells. For the Ba/F3 cells, RPMI-1640 with 10% FBS and 5 ng/ml IL-3 (R&D Systems) was used. The transduced Ba/F3 cells were cultured by adding 1 ug/ml puromycin (Invitrogen) to the same medium.
24 hours before treatment with the compounds, 3000 to 5000 cells were distributed into each well of a white clear bottom 96 well plate (Corning). The compounds were diluted in dimethylsulfoxide (dilution ratio 3:1; 12 concentrations total) and injected 0.5 ul each for a final concentration of 0.3 nM to 50 um. As for measurement of live cells, 72 hours after treatment with the compounds, a CellTiter-Glo luminescent cell-viability reagent (Promega) was used to store the cells at room temperature for 10 minutes, followed by measurement of luminescence using a reader (SynergyNeo, Biotek). Each test was repeated three times.
The result was calculated as a cell growth ratio (%) compared to a control. The program GraphPad Prism version 5.0 was used to draw the graphs and calculate the GI50 values.

Row | SMILES | Ba/F3 (NPH) Activity
1 | C=CC(=O)Nc1cc(Nc2cc(N3OCC[C@@H]3c3cccc(C(F)(F)F)c3)ncn2)c(OC)cc1N1CCC(N2C[C@H]3C[C@@H]2CO3)CC1 [compound 943, N-(2-(4-((1R,4R)-2-oxa-5-azabicyclo [2.2.1]heptane-5-yl)piperidine-1-yl)-4-methoxy-5-((6-((R)-3-(3-(trifluoromethyl)phenyl)isoxazolidine-2-yl)pyrimidine-4-yl)amino)phenyl) acrylamide] | A (GI50 < 50 nM)
2 | C=CC(=O)Nc1cc(Nc2cc(N3OCC[C@@H]3c3ccccc3)ncn2)c(OC)cc1N1CCC(N2C[C@@H]3C[C@H]2CN3CC)CC1 [compound 737, N-(2-(4-((1S,4S)-5-ethyl-2,5-diazabicyclo [2.2.1]heptane-2-yl)piperidine-1-yl)-4-methoxy-5-((6-((R)-3-phenylisoxazolidine-2-yl)pyrimidine-4-yl)amino)phenyl) acrylamide] | A (GI50 < 50 nM)
3 | C=CC(=O)Nc1cc(Nc2cc(N3OCC[C@@H]3c3cccc(Cl)c3)ncn2)c(OC)cc1N1CCC(N2CCN(CC)CC2)CC1 [compound 412, N-(5-((6-((R)-3-(3-chlorophenyl)isoxazolidine-2-yl)pyrimidine-4-yl)amino)-2-(4-(4-ethylpiperazine-1-yl)piperidine-1-yl)-4-methoxyphenyl) acrylamide] | A (GI50 < 50 nM)
4 | C=CC(=O)Nc1cc(Nc2cc(N3OCC[C@@H]3c3cccc4ccccc34)ncn2)c(OC)cc1N1CCC(N(C)C)CC1 [compound 442, N-(2-(4-methoxy-5-((6-(dimethylamino)piperidine-1-yl)-4-((R)-3-(naphthalene-1-yl)isoxazolidine-2-yl)pyrimidine-4-yl)amino)phenyl) acrylamide] | A (GI50 < 50 nM)
5 | C=CC(=O)Nc1cc(Nc2cc(N3OCC[C@@H]3c3cccc(F)c3F)ncn2)c(OC)cc1N1CCC(N(C)C)CC1 [compound 926, N-(5-((6-((R)-3-(2,3-difluorophenyl)isoxazolidine-2-yl)pyrimidine-4-yl)amino)-2-(4-(dimethylamino)piperidine-1-yl)-4-methoxyphenyl) acrylamide] | A (GI50 < 50 nM)
6 | C=CC(=O)Nc1cc(Nc2cc(N3OCC[C@@H]3c3ccc(Cl)cc3F)ncn2)c(OC)cc1N1CCC(N2CC[C@H](N(C)C)C2)CC1 [compound 405, N-(5-((6-((R)-3-(4-chloro-2-fluorophenyl)isoxazolidine-2-yl)pyrimidine-4-yl)amino)-2-(4-((S)-3-(dimethylamino)pyrolidine-1-yl)piperidine-1-yl)-4-methoxyphenyl) acrylamide] | B (50 nM ≤ GI50 < 500 nM)
7 | C=CC(=O)Nc1cc(Nc2cc(N3OCC[C@@H]3c3ccc(Cl)c(Cl)c3)ncn2)c(OC)cc1N(C)CCOC [compound 679, N-(5-((6-((R)-3-(3,4-dichlorophenyl)isoxazolidine-2-yl)pyrimidine-4-yl)amino)-4-methoxy-2-((2-methoxyethyl)(methyl)amino)phenyl) acrylamide] | B (50 nM ≤ GI50 < 500 nM)
8 | C=CC(=O)Nc1cc(Nc2cc(N3OCC[C@@H]3c3cc(F)ccc3F)ncn2)c(OC)cc1N1CCC(N2CCN(CC)CC2)CC1 [compound 767, N-(5-((6-((R)-3-(2,5-difluorophenyl)isoxazolidine-2-yl)pyrimidine-4-yl)amino)-2-(4-(4-ethylpiperazine-1-yl)piperidine-1-yl)-4-methoxyphenyl) acrylamide] | A (GI50 < 50 nM)
9 | C=CC(=O)Nc1cc(Nc2cc(N3OCC[C@@H]3c3cccc(Cl)c3F)ncn2)c(OC)cc1N1CCN(C2COC2)CC1 [compound 745, N-(5-((6-((R)-3-(3-chloro-2-fluorophenyl)isoxazolidine-2-yl)pyrimidine-4-yl)amino)-4-methoxy-2-(4-(oxetane-3-yl)piperazine-1-yl)phenyl) acrylamide] | A (GI50 < 50 nM)
10 | C=CCN1CCN(C2CCN(c3cc(OC)c(Nc4cc(N5OCC[C@@H]5c5cccc(C#N)c5)ncn4)cc3NC(=O)C=C)CC2)CC1 [Example 210, N-(2-(4-(4-allylpiperazine-1-yl)piperidine-1-yl)-5-((6-((R)-3-(3-cyanophenyl)isoxazolidine-2-yl)pyrimidine-4-yl)amino)-4-methoxyphenyl) acrylamide] | A (GI50 < 50 nM)
11 | C=CC(=O)Nc1cc(Nc2cc(N3OCC[C@@H]3c3cc(F)cc(Cl)c3)ncn2)c(OC)cc1N1CCC(N(C)C)CC1 [compound 627, N-(5-((6-((R)-3-(3-chloro-5-fluorophenyl)isoxazolidine-2-yl)pyrimidine-4-yl)amino)-2-(4-(dimethylamino)piperidine-1-yl)-4-methoxyphenyl) acrylamide] | A (GI50 < 50 nM)

Now from value to compound:

Row | Ba/F3 (NPH) Activity | SMILES
12 | A (GI50 < 50 nM) | C=CC(=O)Nc1cc(Nc2cc(N3OCC[C@@H]3c3ccc(Cl)c(F)c3)ncn2)c(OC)cc1N1CCC(N2CCN(CC)CC2)CC1 [Example 262, N-(5-((6-((R)-3-(4-chloro-3-fluorophenyl)isoxazolidine-2-yl)pyrimidine-4-yl)amino)-2-(4-(4-ethylpiperazine-1-yl)piperidine-1-yl)-4-methoxyphenyl) acrylamide]
13 | A (GI50 < 50 nM) | C=CC(=O)Nc1cc(Nc2cc(N3OCC[C@@H]3c3cc(F)ccc3F)ncn2)c(OC)cc1N1CCN(C2CC2)CC1 [compound 299, N-(2-(4-cyclopropylpiperazine-1-yl)-5-((6-((R)-3-(2,5-difluorophenyl)isoxazolidine-2-yl)pyrimidine-4-yl)amino)-4-methoxyphenyl) acrylamide]
14 | A (GI50 < 50 nM) | C=CC(=O)Nc1cc(Nc2cc(N3OCC[C@@H]3c3cccc(F)c3)ncn2)c(OC)cc1N1CCC(N2C[C@@H]3C[C@H]2CN3C)CC1 [compound 837, N-(5-((6-((R)-3-(3-fluorophenyl)isoxazolidine-2-yl)pyrimidine-4-yl)amino)-4-methoxy-2-(4-((1S, 4S)-5-methyl-2,5-diazabicyclo[2.2.1]heptane-2-yl)piperidine-1-yl)phenyl)acrylamide]
15 | A (GI50 < 50 nM) | C=CC(=O)Nc1cc(Nc2cc(N3OCC[C@@H]3c3ccc(Cl)c(F)c3)ncn2)c(OC)cc1N1CCN(C(C)=O)CC1 [compound 363, N-(2-(4-acetylpiperazine-1-yl)-5-((6-((R)-3-(4-chloro-3-fluorophenyl)isoxazolidine-2-yl)pyrimidine-4-yl)amino)-4-methoxyphenyl) acrylamide]
16 | A (GI50 < 50 nM) | C=CC(=O)Nc1cc(Nc2cc(N3OCC[C@@H]3c3cc(F)ccc3F)ncn2)c(OC)cc1N1CCC(N2C[C@@H](C)N(C3CC3)C[C@H]2C)CC1 [Example 172, N-(2-(4-((2R,5R)-4-cyclopropyl-2,5-dimethylpiperazine-1-yl)piperidine-1-yl)-5-((6-((R)-3-(2,5-difluorophenyl)isoxazolidine-2-yl)pyrimidine-4-yl)amino)-4-methoxypheny) acrylamide]
17 | A (GI50 < 50 nM) | C=CC(=O)Nc1cc(Nc2cc(N3OCC[C@@H]3c3cccc(OC)c3)ncn2)c(OC)cc1N1CCC(N2CCN(C(C)=O)CC2)CC1 [compound 779, N-(2-(4-(4-acetylpiperazine-1-yl)piperidine-1-yl)-4-methoxy-5-((6-((R)-3-(3-methoxyphenyl)isoxazolidine-2-yl)pyrimidine-4-yl)amino)phenyl)acrylamide]
